“And” between values parts separate entries of the source, which are not always exact repeats. Equal entries are not always repeated. Where two headings read alike, the source gives them in different places.
Legend:
[1] = test system: JJN-3 (NIK translocated) multiple myeloma cells; assay: Antiproliferative activity on JJN-3 multiple myeloma cells (CellTiter-Glo); assay type: cell-based, human; details: JJN-3 (NIK translocated) cells, 96 hr treatment, averaged values, read-out: JJN-3 Proliferation inhibition (IC50 (nM))
Method in brief: (§1)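 Cells plated at 15000 (JJN3) or 20000 (KMS12BM) per well and treated 96 h at 37° C, 5% CO2, final DMSO 0.3%, 9-point 1:3 dilutions. Viability by CellTiter-Glo luminescence; time-zero blank subtracted, growth expressed as percent of untreated control.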

[2] = test system: P-IKKα levels in L363 (NIK translocated multiple myeloma) cells; assay: Effect of compounds on P-IKKα levels in L363 cells (Mesoscale sandwich immuno-assay); assay type: cell-based, human; details: 2 hr treatment, averaged values, read-out: Inhibition of pIKKα_L-363 (IC50 (nM))
Experimental: Effect of Compounds on P-IKKα Levels in L363 (NIK Translocated Multiple Myeloma) Cells
All compounds tested were dissolved in DMSO and further dilutions were made in culture medium. Final DMSO concentration was 1% (v/v) in cell assays. The human L363 cells (ATCC) were cultured in RPMI 1640 medium supplemented with GlutaMax and 10% fetal calf serum (PAA). Cells were routinely maintained at densities of 0.2×10^6 cells per ml-1×10^6 cells per ml at 37° C. in a humidified 5% CO2 atmosphere. Cells were passaged twice a week splitting back to obtain the low density. Cells were seeded in 96 well plates (Nunc 167008) at 2×10^6 per ml media in a volume of 75 μl per well plus 25 μl 1 μg/ml recombinant human B-cell activating factor (BAFF/BLyS/TNFSF13B). Seeded cells were incubated at 37° C. in a humidified 5% CO2 atmosphere for 24 hr. Drugs and/or solvents were added (20 μl) to a final volume of 120 μl. Following 2 hr treatment plates were removed from the incubator and cell lysis was achieved by the addition of 30 μl 5× lysis buffer followed by shaking on a plate shaker at 4° C. for 10 min. At the end of this incubation lysed cells were centrifuged at 800×g for 20 min at 4° C. and the lysate was assessed for P-IKK levels by sandwich immuno-assay carried out in anti-rabbit antibody coated Mesoscale plates. Within an experiment, the results for each treatment were the mean of 2 replicate wells. For initial screening purposes, compounds were tested using an 8 point dilution curve (serial 1:3 dilutions). […] The blank incubation value was subtracted from all control and sample values. To determine the IC50 a sigmoidal curve was fitted to the plot of % inhibition of control P-IKKα levels versus Log10 compound concentration.

[3] = molecular target: recombinant human NF-kappaB-inducing Kinase (NIK/MAP3K14) (Homo sapiens, UniProt Q99558); assay: Inhibition of auto-phosphorylation of recombinant human NIK/MAP3K14 activity (AlphaScreen); assay type: biochemical; details: 25 microM ATP, averaged over all measurements on all batches
Chain of recombinant human NF-kappaB-inducing Kinase (NIK/MAP3K14) (Q99558 whole entry): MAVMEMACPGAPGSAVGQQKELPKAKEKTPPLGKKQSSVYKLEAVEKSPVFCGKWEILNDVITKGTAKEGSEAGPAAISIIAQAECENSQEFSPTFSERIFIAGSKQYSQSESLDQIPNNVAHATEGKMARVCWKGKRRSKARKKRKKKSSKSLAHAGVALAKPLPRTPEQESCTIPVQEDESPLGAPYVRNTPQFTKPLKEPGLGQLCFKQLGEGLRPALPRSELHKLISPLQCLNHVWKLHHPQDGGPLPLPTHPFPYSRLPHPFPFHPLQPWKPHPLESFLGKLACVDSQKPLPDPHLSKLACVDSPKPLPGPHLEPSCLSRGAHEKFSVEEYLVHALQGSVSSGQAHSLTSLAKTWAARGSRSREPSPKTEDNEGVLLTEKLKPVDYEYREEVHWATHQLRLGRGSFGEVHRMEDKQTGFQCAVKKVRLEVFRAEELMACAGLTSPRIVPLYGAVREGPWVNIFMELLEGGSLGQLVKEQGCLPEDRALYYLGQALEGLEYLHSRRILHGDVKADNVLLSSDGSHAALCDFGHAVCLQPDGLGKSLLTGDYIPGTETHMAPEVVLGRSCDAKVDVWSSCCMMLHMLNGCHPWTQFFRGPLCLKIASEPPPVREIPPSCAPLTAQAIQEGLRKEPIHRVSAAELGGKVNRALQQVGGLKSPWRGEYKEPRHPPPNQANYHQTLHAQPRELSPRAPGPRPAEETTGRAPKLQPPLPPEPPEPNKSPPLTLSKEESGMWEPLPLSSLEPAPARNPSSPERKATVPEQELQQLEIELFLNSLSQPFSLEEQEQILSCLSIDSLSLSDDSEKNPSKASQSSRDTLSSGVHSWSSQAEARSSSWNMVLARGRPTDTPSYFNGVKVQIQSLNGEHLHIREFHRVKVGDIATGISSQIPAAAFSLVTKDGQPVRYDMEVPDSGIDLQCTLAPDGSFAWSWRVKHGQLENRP

[4] = test system: KMS12-BM (NIK WT) multiple myeloma cells; assay: Antiproliferative activity on KMS12-BM multiple myeloma cells (CellTiter-Glo); assay type: cell-based, human; details: 96 hr treatment, averaged values, read-out: KMS-12 Proliferation inhibition (IC50 (nM))
Method in brief: as §1

Structure (SMILES)	IC50 ([1]; Homo sapiens, JJN-3, 96 h)	IC50 ([2]; Homo sapiens, L-363, 2 h)	IC50 [3]	melting point	IC50 ([4]; Homo sapiens, KMS-12-BM, 96 h)	IC50 [1]	IC50 [2]	IC50 [4]
COCCCc1ncc(C)cc1Nc1nccc(-c2cc(C#N)c3c(c2)[C@@](C)(CO)CN3)n1 [Compound 177]	205 nM	21.4 nM	5.5 nM	115 °C	> 10000 nM	–	–	–
Cc1cnc(OC2CN(C)CC2F)c(Nc2nccc(-c3cc(C#N)c4c(c3)[C@@](C)(CO)CN4)n2)c1 (stereo partly drawn) [Compound 154]	–	–	7.2 nM	185 °C	–	148 nM	3 nM	~7940 nM
Cc1cc(Nc2nccc(-c3cc(C#N)c4c(c3)[C@@](C)(CO)CN4)n2)c(=O)n(CC(C)N2CCOCC2)c1 (single isomer, unassigned) [Compound 23i]	–	–	2.3 nM	136 °C	–	30 nM	2.9 nM	> 10000 nM
CC(C)(O)COc1ncc(C#N)cc1Nc1nccc(-c2cc(C#N)c3c(c2)[C@@](C)(CO)CN3)n1 [Compound 77]	60 nM	25.7 nM	5 nM	162 °C	> 10000 nM	–	–	–
Cc1cnc(C2CCOCC2)c(Nc2nccc(-c3cc(C#N)c4c(c3)[C@@](C)(CO)CN4)n2)c1 [Compound 173]	933 nM	69.2 nM	15.1 nM	225 °C	> 10000 nM	–	–	–
Cc1cc(Nc2nccc(-c3cc(C#N)c4c(c3)[C@@](C)(CO)CN4)n2)c(=O)n(Cc2nccn2C)c1 [Compound 4i]	316 nM	8.9 nM	1.3 nM	235 °C	> 10000 nM	–	–	–
COc1nc(C)c(Nc2nccc(-c3cc(C#N)c4c(c3)[C@@](C)(CO)CN4)n2)cc1C [Compound 168]	39 nM	2.4 nM	3 nM	260 °C	> 10000 nM	–	–	–
Cc1ncc(C2CCN(C)CC2)cc1Nc1nccc(-c2cc(C#N)c3c(c2)[C@@](C)(CO)CN3)n1 [Compound 164]	1180 nM	1180 nM	102 nM	121 °C	1660 nM	–	–	–
Cc1cc(Nc2nccc(-c3cc(C#N)c4c(c3)[C@@](C)(CO)CN4)n2)c(=O)n(Cc2nccn2C2CC2)c1 [Compound 6i]	275 nM	10 nM	1 nM	194 °C	5130 nM	–	–	–
Cc1cnc(OCC2CC2)c(Nc2nccc(-c3cc(C#N)c4c(c3)[C@@](C)(CO)CN4)n2)c1 [Compound 86]	1180 nM	53.7 nM	12 nM	206 °C	> 10000 nM	–	–	–
Cc1cc(Nc2nccc(-c3cc(C#N)c4c(c3)[C@@](C)(CO)CN4)n2)c(=O)n(CCN2CC(F)C2)c1 [Compound 1i]	347 nM	2.6 nM	1.1 nM	149 °C	3890 nM	–	–	–
COc1nc(/C=C/C(=O)N(C)C)ccc1Nc1nccc(-c2cc(C#N)c3c(c2)[C@@](C)(CO)CN3)n1 [Compound 48]	~295 nM	1.2 nM	2.9 nM	192 °C	> 10000 nM	–	–	–
Cc1cc(Nc2nccc(-c3cc(C#N)c4c(c3)[C@@](C)(CO)CN4)n2)c(C)nc1OCC1(C)COC1 [Compound 159]	89 nM	5.9 nM	5.6 nM	179 °C	> 10000 nM	–	–	–
CNC(=O)c1cnc(C)c(Nc2nccc(-c3cc(C#N)c4c(c3)[C@@](C)(CO)CN4)n2)c1 [Compound 93]	1440 nM	5.6 nM	2.1 nM	165 °C	9550 nM	–	–	–
Cc1cc(Nc2nccc(-c3cc(C#N)c4c(c3)[C@@](C)(CO)CN4)n2)c(C)nc1OCC1COC1 [Compound 160]	115 nM	2.1 nM	3.9 nM	189 °C	> 10000 nM	–	–	–
Cc1cnc(OCC2CN(C)CCO2)c(Nc2nccc(-c3cc(C#N)c4c(c3)[C@@](C)(CO)CN4)n2)c1 (single isomer, unassigned) [Compound 151]	66 nM	–	5.5 nM	114 °C	> 10000 nM	–	13.8 nM	–
COCCNc1nc(OC)c(Nc2nccc(-c3cc(C#N)c4c(c3)C(C)(CO)CN4)n2)cc1Cl (stereo not drawn) [Compound 2]	74 nM	21.4 nM	13.2 nM	230 °C	> 10000 nM	–	–	–
Cn1cc(Cl)cc(Nc2nccc(-c3cc(C#N)c4c(c3)[C@@](C)(CO)CN4)n2)c1=O [Compound 13i]	31 nM	0.9 nM	1.9 nM	306 °C	> 10000 nM	–	–	–
CC1(COc2ncc(C#N)cc2Nc2nccc(-c3cc(C#N)c4c(c3)[C@@](C)(CO)CN4)n2)COC1 [Compound 76]	> 10000 nM	26.9 nM	5.1 nM	162 °C	> 10000 nM	–	–	–
Cc1cc(Nc2nccc(-c3cc(C#N)c4c(c3)[C@@](C)(CO)CN4)n2)c(=O)n(CCN2CCN(C)CC2)c1 [Compound 19i]	25 nM	2.5 nM	0.6 nM	148 °C	> 10000 nM	–	–	–
CC(C)(O)c1ccc(Nc2nccc(-c3cc(C#N)c4c(c3)[C@@](C)(CO)CN4)n2)c(CCC2CC2)n1 [Compound 81]	513 nM	20.9 nM	4.7 nM	318 °C	> 10000 nM	–	–	–
COc1ncc(C)cc1Nc1nccc(-c2cc(C#N)c3c(c2)[C@@](C)(CO)CN3)n1 [Compound 59]	16 nM	13.2 nM	2.5 nM	234 °C and 237 °C	> 10000 nM	–	–	–
Cc1cc(Nc2nccc(-c3cc(C#N)c4c(c3)[C@@](C)(CO)CN4)n2)c(=O)n(CCN2CCCOCC2)c1 [Compound 20i]	41 nM	1.5 nM	2.3 nM	287 °C	> 10000 nM	–	–	–
C[C@]1(CO)CNc2c(C#N)cc(-c3ccnc(Nc4cc(F)cn(CCN5CCOCC5)c4=O)n3)cc21 [Compound 3i]	~1780 nM	3.3 nM	1.3 nM	252 °C	> 10000 nM	–	–	–
